Measurements reported in patent US20060110401A1, “Mixture of peptides from c and ns3 proteins of the hepatitis c virus and applications thereof” (priority 2002, published 2006).
Where two headings read alike, the source gives them in different places. Residues, ends and D or L forms follow the SMILES beside them.

Legend:
HLA-DRB4 (DRB4*0101) = molecular target: T1, HLA-DRB4 (DRB4*0101) (Homo sapiens, UniProt P01903+P13762, G164S); assay: biochemical; format: binding; conditions: read-out: binds with good affinity to DRB4
T1 construct: endogenous in cells; host or cells: homozygous EBV-transformed human B lymphocyte lines; immunopurified with antibody L243

HLA-DR15 (DRB1*1501) = molecular target: T2, HLA-DR15 (DRB1*1501) (Homo sapiens, UniProt P01903+P01911); assay: biochemical; format: binding; conditions: DRB1*1501; read-out: binds with good affinity to DR15
T2 construct: endogenous in cells; host or cells: homozygous EBV-transformed human B lymphocyte lines; immunopurified with antibody L243

HLA-DR4 (DRB1*0401) = molecular target: T3, HLA-DR4 (DRB1*0401) (Homo sapiens, UniProt P01903+P01911, A100K/A169T/F76Y/I96L/K127E/L162R/M171V/N62H/P40V/Q125Y/R42H/S133A/S149N/S66Y/V115G/V209L/W38E); assay: biochemical; format: binding; conditions: read-out: binds with good affinity to DR4
T3 construct: endogenous in cells; host or cells: homozygous EBV-transformed human B lymphocyte lines; immunopurified with antibody L243

DR1 = assay: DR1
HLA-DR11 (DRB1*1101) = HLA-DR11 (DRB1*1101) (Homo sapiens, UniProt P01903+P01911, A100R/A169T/A87E/I96F/K41T/L162R/M171V/P40S/Q125H/Q178H/Q39Y/Q99D/R42S/S66Y/T262R/V115G/W38E); assay: biochemical; format: binding; conditions: read-out: binds with good affinity to DR11
Sequence of HLA-DR11 (DRB1*1101) (P01903 26-254 limits assumed, other chains not shown): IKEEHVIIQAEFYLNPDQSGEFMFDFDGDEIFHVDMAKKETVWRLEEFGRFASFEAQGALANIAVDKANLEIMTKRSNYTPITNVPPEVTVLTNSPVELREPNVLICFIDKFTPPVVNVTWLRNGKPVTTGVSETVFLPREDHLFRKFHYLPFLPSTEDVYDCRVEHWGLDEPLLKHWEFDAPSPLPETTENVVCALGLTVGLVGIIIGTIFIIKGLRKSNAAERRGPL

HLA-DR7 (DRB1*0701) = HLA-DR7 (DRB1*0701) (Homo sapiens, UniProt P01903+P01911, A100R/A102G/A103Q/D57E/D86V/E43K/F76Y/K127E/L162R/M171V/P40G/Q125H/Q99D/R33Q/R42Y/R54Q/S133A/S66F/T210M/V115G/Y107V/Y59L/Y89S); assay: biochemical; format: binding; conditions: read-out: binds with good affinity to DR7
HLA-DRB5 (DRB5*0101) = molecular target: T4, HLA-DRB5 (DRB5*0101) (Homo sapiens, UniProt P01903+Q30154); assay: biochemical; format: binding; conditions: read-out: binds with good affinity to DRB5
T4 construct: endogenous in cells; host or cells: homozygous EBV-transformed human B lymphocyte lines; immunopurified with antibody L243

DR13 = assay: DR13
Description: (§1) Table printed on a drawing sheet, Figure 2
Where the first naming reader finds the target: head: DR13

DR4 = assay: DR4
HLA-DR3 (DRB1*0301) = molecular target: T5, HLA-DR3 (DRB1*0301) (Homo sapiens, UniProt P01903+P01911, A100K/A102G/A103R/A169T/F55Y/I96L/K41T/L162R/M171V/P40S/Q125H/Q178H/Q39Y/R42S/S66N/T106N/T262R/W38E/Y61H); assay: biochemical; format: binding; conditions: read-out: binds with good affinity to DR3
T5 construct: endogenous in cells; host or cells: homozygous EBV-transformed human B lymphocyte lines; immunopurified with antibody L243

HLA-DRB3 (DRB3*0101) = molecular target: T6, HLA-DRB3 (DRB3*0101) (Homo sapiens, UniProt P01903+P79483); assay: HLA II/peptide binding assay, HLA-DRB3; conditions: read-out: binds with good affinity to DRB3
T6 construct: endogenous in cells; host or cells: homozygous EBV-transformed human B lymphocyte lines; immunopurified with antibody L243

HLA-DR13 (DRB1*1301) = HLA-DR13 (DRB1*1301) (Homo sapiens, UniProt P01903+P01911, A100E/A169T/K41T/L162R/M171V/P40S/Q125H/Q178H/Q39Y/Q99D/R42S/S66N/T262R/W38E/Y61H); assay: biochemical; format: binding; conditions: read-out: binds with good affinity to DR13
DRB3 = assay: DRB3
DR7 = assay: DR7
HLA-DR1 (DRB1*0101) = molecular target: T7, HLA-DR1 (DRB1*0101) (Homo sapiens, UniProt P01903+P01911, A100R/D57E/F55L/F60I/F76Y/I96L/L162R/M171V/P40L/Q125E/R42F/V115G/Y59C); assay: biochemical; format: binding; conditions: for IC50: DRB1*0101
T7 construct: endogenous in cells; host or cells: homozygous EBV-transformed human B lymphocyte lines; immunopurified with antibody L243

DR15 = assay: DR15
DRB5 = assay: DRB5
DR11 = assay: DR11
Description: as §1
Where the first naming reader finds the target: head: DR11

DP402 = assay: DP402
DP401 = assay: DP401
DRB4 = assay: DRB4
Description: as §1
Where the first naming reader finds the target: head: DRB4

HLA-DP402 (DPB1*0402) = HLA-DP402 (DPB1*0402) (Homo sapiens, UniProt P04440+P20036, A65V/A84D/A85E/L207M); assay: biochemical; format: binding; conditions: DP*0402; read-out: binds with good affinity to DP402
[1] = tested on: T lymphocytes derived from PBMCs from patients chronically infected with HCV; format: cell-based, human; conditions: supernatant 48 h, —: not detected
[2] = read-out: binds with good affinity to DR1

SMILES	IC50 (HLA-DRB4 (DRB4*0101)) [µM]	IC50 (HLA-DR15 (DRB1*1501)) [µM]	IC50 (HLA-DR4 (DRB1*0401)) [µM]	IC50 (HLA-DR11 (DRB1*1101)) [µM]	IC50 (HLA-DR7 (DRB1*0701)) [µM]	IC50 (HLA-DRB5 (DRB5*0101)) [µM]	IC50 (DR13) [µM]	IC50 (HLA-DRB3 (DRB3*0101)) [µM]	IC50 (DRB3) [µM]	IC50 (DR7) [µM]	IC50 (HLA-DR1 (DRB1*0101); [2]) [µM]	IC50 (DR15) [µM]	IC50 (DRB5) [µM]	further results
CC[C@H](C)[C@H](NC(=O)[C@@H](NC(=O)[C@H](Cc1ccccc1)NC(=O)[C@@H](NC(=O)[C@@H]1CCCN1C(=O)[C@H](CC(=O)O)NC(=O)[C@H](CC(C)C)NC(=O)[C@H](CO)NC(=O)[C@H](Cc1ccccc1)NC(=O)[C@H](CC(=O)O)NC(=O)[C@@H](NC(=O)[C@@H](NC(=O)[C@H](CCC(N)=O)NC(=O)[C@@H](NC(=O)[C@@H](NC(=O)[C@H](C)NC(=O)[C@@H](N)[C@@H](C)O)C(C)C)[C@@H](C)O)[C@@H](C)O)C(C)C)[C@@H](C)O)[C@@H](C)O)C(=O)N[C@@H](CCC(=O)O)C(=O)N[C@H](C(=O)N[C@H](C(=O)N[C@H](C(=O)N[C@@H](CC(C)C)C(=O)N1CCC[C@H]1C(=O)N[C@@H](CCC(N)=O)C(=O)N[C@@H](CC(=O)O)C(=O)N[C@@H](C)C(=O)O)[C@@H](C)O)[C@@H](C)CC)[C@@H](C)O [26N 1456-1481]	< 1	< 1	< 1	< 1	< 1	< 1	0.3	< 1	0.04	0.02	< 1			IC50 (DR1): 0.002 µM; IC50 (DR4): 0.008 µM; IC50 (HLA-DR3 (DRB1*0301)): < 1 µM; IC50 (HLA-DR13 (DRB1*1301)): < 1 µM
CC[C@H](C)[C@H](NC(=O)CNC(=O)[C@@H]1CCCN1C(=O)[C@@H](N)CCCCN)C(=O)N[C@@H](Cc1ccc(O)cc1)C(=O)N[C@@H](CCCNC(=N)N)C(=O)N[C@@H](Cc1ccccc1)C(=O)N[C@H](C(=O)N[C@@H](C)C(=O)N1CCC[C@H]1C(=O)NCC(=O)N[C@@H](CCC(=O)O)C(=O)N[C@@H](CCCNC(=N)N)C(=O)N1CCC[C@H]1C(=O)N[C@@H](CO)C(=O)NCC(=O)N[C@@H](CCSC)C(=O)N[C@@H](Cc1ccccc1)C(=O)N[C@@H](CC(=O)O)C(=O)O)C(C)C [27N 1495-1513] (H-KPGIYRFVAPGERPSGMFD-OH; N-terminus and C-terminus assumed)	< 1	< 1		< 1	< 1	< 1		< 1	40	0.313	< 1	0.15	0.002	IC50 (DR11): 0.175 µM; IC50 (DP402): > 100 µM; IC50 (DP401): > 100 µM
CSCC[C@H](NC(=O)[C@H](Cc1ccc(O)cc1)NC(=O)[C@H](C)NC(=O)[C@H](CCCNC(=N)N)NC(=O)[C@H](CC(C)C)NC(=O)[C@H](CCCNC(=N)N)NC(=O)[C@@H](NC(=O)[C@@H](NC(=O)[C@@H](NC(=O)[C@H](CCC(=O)O)NC(=O)[C@H](C)NC(=O)[C@@H]1CCCN1C(=O)[C@@H](NC(=O)[C@H](CC(C)C)NC(=O)[C@H](CCC(=O)O)NC(=O)[C@H](Cc1ccc(O)cc1)NC(=O)[C@H](Cc1c[nH]c2ccccc12)NC(=O)[C@H](C)NC(=O)[C@H](C)NC(=O)CN)[C@@H](C)O)[C@@H](C)O)[C@@H](C)O)C(C)C)C(=O)N[C@@H](CC(N)=O)C(=O)N[C@H](C(=O)N1CCC[C@H]1C(=O)NCC(=O)N[C@@H](CC(C)C)C(=O)N1CCC[C@H]1C(=O)N[C@H](C(=O)N[C@@H](C)C(=O)N[C@@H](CCC(N)=O)C(=O)N[C@@H](CC(=O)O)C(=O)O)C(C)C)[C@@H](C)O [28N 1524-1553]	< 1	< 1	< 1	< 1	< 1	< 1	10	< 1		0.005	< 1	0.001	0.02	IC50 (DRB4): 0.03 µM; IC50 (HLA-DP402 (DPB1*0402)): < 1 µM; IL2 ([1]; patient 067): — 76 pg/ml; IL10 ([1]; patient 067): 86 pg/mL; IL10 ([1]; patient 078): 21 pg/mL; IL4 ([1]; patient 093): — 11 pg/ml; IL10 ([1]; patient 829): 67 pg/mL; IC50 (HLA-DR1 (DRB1*0101); competition with biotinylated tracer HA 306-318, read-out: IC50, binding to HLA-DR1): 0.002 µM; affinity for HLA-DR1 (in words) (HLA-DR1 (DRB1*0101); legend of FIG. 4): high affinity
